This note sets out measurements from patent US20210378995A1, “METHODS AND TOPICAL PHARMACEUTICAL COMPOSITIONS FOR THE TREATMENT OF SKIN MICROVASCULAR DYSFUNCTION” (INSERM (INSTITUT NATIONAL DE LA SANTÉ ET DE LA RECHERCHE …, priority 2018, published 2021).

Series [1] is described as follows: Percutaneous passage of GSK2256294 topical formulations in Franz's cells on pig ear skin (Example 5). Type of series: in vitro ADME. The procedure:
First GSK2256294 topical formulations used DMSO and water 50/50% as vehicle. The experiments were conducted with Franz's cell using the skin of a pig's ear. The donor compartment was filled by an 20 μL of solution with a concentration between 100 to 400 μg/g of GSK2256294. The receptor medium was constituted by 4.5 mL of PBS, was at 32° C. and under magnetic stirring. Samples from the receptor compartment were collected at different times over 24 hours to determine the passage flow of GSK2256294. Second GSK2256294 topical formulation using alcohol, isopropanol, propylene glycol and DMSO 50/50% as vehicle with a GSK2256294's concentration at 200 μg/g were tested in the same conditions. Samples were then frozen at −20° C. The […] quantification was realized by HPLC/MS/MSS.

Series [2] can be described thus: Solubility in paraffin wax vehicle. Type of series: physicochemical. The settings on record: paraffin wax vehicle could not be used.
Series [3] in a line: Percutaneous absorption using Franz's cells on pigskin, influence of the solvent (Example 1).
Procedure: The skin of a pig's ears was chosen for the experiments as it is very similar to that of a human skin. […] The receptor compartment contained 4.5 mL of PBS and was under magnetic stirring. […] Samples were frozen at −20° C.
[4] abbreviates: GSK2256294 4 μg/mL, vehicle DMSO/water 50%/50%.
The mark [5] stands for this setting: GSK2256294 40 μg/mL, 'with DMSO'.
[6] abbreviates: GSK2256294 40 μg/mL, vehicle DMSO/water 50%/50%.
[7] abbreviates: GSK2256294, vehicle water at pH3.
Where [8] appears, read: GSK2256294, vehicle water at pH3/alcohol 50/50%.

As to `CNc1nc(C)nc(N[C@H]2CCC[C@@H](C(=O)NCc3ccc(C#N)cc3C(F)(F)F)C2)n1` [GSK2256294, (1R,3S)—N-[[4-cyano-2-(trifluoromethyl)phenyl]methyl]-3-[[4-methyl-6-(methylamino)-1,3,5-triazin-2-yl]amino]cyclohexane-1-carboxamide], the “flow between 4 and 12 h” value in series [1] (DMSO/water 50/50%, GSK2256294 200 μg/g) is 64.83 ng/h/cm^2; in series [1] (DMSO/water 50/50%, lower end of GSK2256294 concentration range 100 to 400 μg/g), 41.92 ng/h/cm^2; in series [1] (DMSO/water 50/50%, upper end of GSK2256294 concentration range 100 to 400 μg/g), 102.26 ng/h/cm^2; in series [1] (alcohol/water 50/50%, GSK2256294 200 μg/g), 55.9 ng/h/cm^2; in series [1] (isopropanol/water 50/50%, GSK2256294 200 μg/g), 74.38 ng/h/cm^2; in series [1] (propylene glycol/water 50/50%, GSK2256294 200 μg/g) it was 48.49 ng/h/cm^2. The “solubility in paraffin wax” value in series [2] is “lack of solubility”. Also, the “absorbed and released by the pigskin over 24 hrs” value is 10.5% in series [3] (setting [4]) and 9.02% in series [3] (setting [6]). Further, the percutaneous absorption flow in series [3] (setting [4]) is listed as 21.9 ng/cm^2/h; in series [3] (setting [5]) it was 134.1 ng/cm^2/h; in series [3] (setting [6]) it was 167.4 ng/cm^2/h; in series [3] (GSK2256294, vehicle PEG400), “No flow”; in series [3] (setting [7]), 167.4 ng/cm^2/h; in series [3] (setting [8]), 38.6 ng/cm^2/h. The passage rate is listed as 7.04% in series [3] (setting [5]), 8.31% in series [3] (setting [7]) and 3.52% in series [3] (setting [8]).
